# Measurements taken from patent US11440932B2, “Surfactant compounds-clips for extraction and stabilization in solution of membrane proteins” (CENTRE NATIONAL DE LA RECHERCHE SCIENTIFIQUE, priority 2017, dated 2022).
# Biological target: T1, BmrA (Bacillus subtilis, UniProt O06967)
# T1 construct: His tag; made in house; host or cells: E. coli C41(DE3)
# Assay: Size exclusion chromatography of BmrA after detergent exchange
# Experimental: The membrane fraction was extracted and purified in DDM by Ni-NTA metal affinity and Superdex 200 size exclusion, before being reloaded on Ni-NTA in order to exchange the DDM either with itself or with the compound 3.7c. Each pool was subsequently loaded onto a 3 ml Superdex S200 5/150 size exclusion column and eluted in the presence of 2 CMC of the same detergent, as indicated. The proteins are detected by absorbance at 280 nm.
# The capacity of the compounds of the invention to maintain the membrane proteins in a native state was exemplified with the compound 3.7c of the invention, monitored by size exclusion chromatography and compared to the reference detergent DDM.
# Procedure: BmrA was extracted in DDM and purified by Ni-NTA affinity chromatography as described in example 13, then loaded onto a Superdex 200 10/300 size exclusion column and eluted with 50 mM Hepes-HCl pH 8.0, 100 mM NaCl, 0.4 mM DDM (2×CMC). The fractions containing BmrA were pooled and separated into several aliquots (˜100 μg) kept at 4° C. One aliquot was subsequently reloaded onto an affinity column containing 1 ml of resin. The DDM was then exchanged against 10 volumes of Hepes-NaCl buffer containing either 2 CMC of DDM (control experiment) or 2 CMC of compound 3.7c (2 mM). BmrA was subsequently eluted in the respective buffers with 100 mM of imidazole added. The fractions containing the proteins were combined and concentrated on 50 kDa amicon (regenerated cellulose) to 50 μl, and were then deposited on a 3 ml Superdex 200 5/150 size exclusion column, equilibrated in 50 mM Hepes-HCl pH 8.0, 100 mM NaCl, and 2 CMC of DDM (0.4 mM) or 3.7c (2 mM). The elution was subsequently carried out at 0.3 ml/min in the respective buffers and the BmrA detected at 280 nm.
# T1 sequence (O06967 whole entry): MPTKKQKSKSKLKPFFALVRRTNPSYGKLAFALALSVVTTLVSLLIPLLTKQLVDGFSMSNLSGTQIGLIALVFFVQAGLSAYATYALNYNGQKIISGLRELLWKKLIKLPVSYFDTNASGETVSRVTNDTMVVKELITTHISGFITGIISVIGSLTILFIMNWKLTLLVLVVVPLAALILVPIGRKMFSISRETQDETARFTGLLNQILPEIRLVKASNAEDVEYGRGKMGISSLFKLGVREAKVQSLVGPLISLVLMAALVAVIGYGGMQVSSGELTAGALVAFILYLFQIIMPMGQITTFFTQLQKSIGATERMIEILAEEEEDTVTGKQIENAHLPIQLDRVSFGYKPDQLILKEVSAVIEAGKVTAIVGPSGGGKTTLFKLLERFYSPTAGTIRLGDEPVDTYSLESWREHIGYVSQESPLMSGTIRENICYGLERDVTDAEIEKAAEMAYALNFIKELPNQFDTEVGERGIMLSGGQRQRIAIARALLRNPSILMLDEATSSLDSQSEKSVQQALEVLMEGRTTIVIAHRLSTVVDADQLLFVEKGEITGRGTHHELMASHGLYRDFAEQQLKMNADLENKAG
structure (smiles),measurement,setting,value
CCCCCCCCCCCCCC(=O)N[C@@H](COCc1cn(CCO[C@@H]2OC(CO)[C@@H](O)C(O)C2O)nn1)C(=O)N[C@H](CCC(=O)O)C(=O)O (some centres unmarked) [Compound 3.7c],elution volume of BmrA,"Superdex 200 5/150, 2 CMC of detergent, 0.3 ml/min",~1.6 mL
same,oligomerization state of BmrA,"after exchange of DDM, 2 CMC (2 mM)",conserves the native oligomerization state
